SMILES strings stand for the structures. ≈ marks a conversion by molar mass, not a printed value.

For data set [1], the system named is B. cereus. Description: Minimum Inhibitory Concentration (MIC), broth dilution method. Type of data set: cell-based. The conditions noted are these: Bacillus cereus, read-out: MIC B. cereus. As for the experimental part:
(§1) Minimum Inhibitory Concentration (MIC), Broth Dilution Method:
(§2) The compounds of the present invention were tested against selected Gram positive and Gram negative organisms using standard microtitration techniques well known to those skilled in the art. Cultures of bacteria were initially applied by streaking a loopful onto agar plates under the appropriate conditions. For example, bacterial stocks are streaked for isolation of single colonies onto chocolate agar and then incubated for 18 hours at 35-37° C. in a 5% CO2 incubator. Five to ten colonies were picked from the chocolate agar plate for subculture to Brain-Heart infusion (BHI) broth, Mueller Hinton broth, or BHI containing 4% serum, and incubated under the appropriate conditions. The ability of the test compound to act as an antimicrobial was determined by the ability of dilutions of the test substance to inhibit bacterial growth in vitro. The optical density of the culture of organisms in the presence of an active compound was compared to the optical density of the same organism grown without test compound. The activity of the compounds is described as either negative or the lowest concentration inhibiting growth (Minimum Inhibitory Concentration [MIC]).
(§3) The activity of selected compounds of the present invention against representative Gram positive and Gram negative bacteria are shown in the following Table 1.
A general note: Dilution methods test growth across graded concentrations, often in twofold steps.

Data set [2] concerns S. aureus 29213. The data set is described as above. Type of data set: cell-based. Particulars: Staphylococcus aureus, 29213, read-out: MIC S. aureus 29213. The protocol: as §1, §2, §3
Data set [3] relates to S. pneumoniae 11733. Described as above. In kind it is cell-based. The conditions noted are these: Streptococcus pneumoniae, 11733, read-out: MIC S. pneumoniae 11733. As for the experimental part: as §1, §2, §3
The subject of data set [4] is B.anthracis V770-NR1-R. Description: microbe, parasite or virus in culture. Type of data set: cell-based. Particulars: Bacillus anthracis, V770NR1R, read-out: MIC B.anthracis V770-NR1-R.

`Oc1cc(Cl)c(N2CCOCC2)cc1Oc1ccc(Cl)cc1Cl` [Example 1, 5-Chloro-2-(2,4-dichlorophenoxy)-4-morpholin-4-yl-phenol] showed a melting point of 187 to 188 °C. Further, the MIC in data set [1] amounted to 800 µg/mL (≈ 2140 µM). Moreover, the MIC in data set [2] is 500 µg/mL (≈ 1330 µM). Moreover, in data set [3], the MIC was 1000 µg/mL (≈ 2670 µM). Further, the MIC in data set [4] came to 1600 µg/mL (≈ 4270 µM).

For `CN1CCN(c2cc(Oc3ccc(Cl)cc3Cl)c(O)cc2Cl)CC1` [Example 2, 5-Chloro-2-(2,4-dichloro-phenoxy)-4-(4-methyl-piperazin-1-yl)-phenol], the MIC in data set [1] was > 25000 µg/mL; in data set [2] it was 60 µg/mL (≈ 155 µM); in data set [3], 250 µg/mL (≈ 645 µM); in data set [4], > 25000 µg/mL.

Consider `COc1ccc(NC(=S)Nc2cc(Oc3ccc(Cl)cc3Cl)c(O)cc2Cl)cc1` [Example 11, 1-[2-Chloro-5-(2,4-dichloro-phenoxy)-4-hydroxy-phenyl]-3-(4-methoxy-phenyl)-thiourea], for which the values for the MIC in data set [2] and in data set [3] were 7900 µg/mL (≈ 16800 µM) and 31300 µg/mL (≈ 66600 µM), respectively.

Regarding `Oc1cc(Cl)c(-c2ccsc2)cc1Oc1ccc(Cl)cc1Cl` [Example 5, 5-Chloro-2-(2,4-dichloro-phenoxy)-4-thiophen-3-yl-phenol], the MIC in data set [1] was determined as 200 µg/mL (≈ 538 µM); in data set [2], 130 µg/mL (≈ 350 µM); in data set [3] it was 10 µg/mL (≈ 26.9 µM); in data set [4], 400 µg/mL (≈ 1080 µM).

With `Cc1cc(O)c(Oc2ccccc2C#N)cc1-n1cccc1` [Example 29, 2-(2-Hydroxy-4-methyl-5-pyrrol-1-yl-phenoxy)-benzonitrile], the melting point lay in the range of 158 to 160 °C. In addition, the MIC in data set [1] worked out at 4000 µg/mL (≈ 13800 µM). Further, the MIC in data set [2] amounted to 62500 µg/mL (≈ 215000 µM). The MIC in data set [3] came out at 500 µg/mL (≈ 1720 µM).

In turn, `O=C(O)c1cc(Oc2ccc(Cl)cc2Cl)c(O)cc1Cl` had a melting point of 192 to 196 °C.

Turning to `CC(=O)Nc1nc(C)c(S(=O)(=O)Nc2cc(Oc3ccc(Cl)cc3Cl)c(O)cc2Cl)s1` [Example 23, N-{5-[2-Chloro-5-(2,4-dichloro-phenoxy)-4-hydroxy-phenylsulfamoyl]-4-methyl-thiazol-2-yl}-acetamide], the MIC in data set [2] was 4000 µg/mL (≈ 7650 µM); in data set [3] it was 15700 µg/mL (≈ 30000 µM).

Turning to `O=C(Nc1cc(Oc2ccc(Cl)cc2Cl)c(O)cc1Cl)c1ccco1` [Example 20, Furan-2-carboxylic acid [2-chloro-5-(2,4-dichloro-phenoxy)-4-hydroxy-phenyl]-amide], the MIC in data set [1] was > 25000 µg/mL; in data set [2] it was 4000 µg/mL (≈ 10000 µM); in data set [3], 2000 µg/mL (≈ 5020 µM); in data set [4], > 25000 µg/mL.

The compound `O=C(O)c1nc(-c2cc(Oc3ccc(Cl)cc3Cl)c(O)cc2Cl)no1` [Example 36, 3-[2-Chloro-5-(2,4-dichloro-phenoxy)-4-hydroxy-phenyl]-[1,2,4]oxadiazole-5-carboxylic acid] yielded a melting point of 115 °C. Moreover, the MIC in data set [1] is 100 µg/mL (≈ 249 µM). Also, the MIC in data set [2] amounted to 200 µg/mL (≈ 498 µM). Also, in data set [4], the MIC was determined as 50 µg/mL (≈ 125 µM).

Consider `CCOC(=O)NC(=S)Nc1ccc(O)c(Oc2ccccc2O)c1` [Example 9, 1-[4-Hydroxy-3-(2-hydroxy-phenoxy)-phenyl]-3-(ethylozycarbonyl)thiourea], for which the MIC in data set [1] came to 12500 µg/mL (≈ 35900 µM); in data set [2] it was 31300 µg/mL (≈ 89800 µM); in data set [3] it was 62500 µg/mL (≈ 179000 µM); in data set [4], 3100 µg/mL (≈ 8900 µM).

Consider `Cc1cc(C(=O)Nc2cc(Oc3ccc(Cl)cc3Cl)c(O)cc2Cl)no1` [Example 22, 5-Methyl-isoxazole-3-carboxylic acid [2-chloro-5-(2,4-dichloro-phenoxy)-4-hydroxy-phenyl]-amide], for which the MIC in data set [2] was 2000 µg/mL (≈ 4840 µM); in data set [3], 500 µg/mL (≈ 1210 µM).

For `Oc1cc(Cl)c(-c2cccs2)cc1Oc1ccc(Cl)cc1Cl` [Example 3, 5-Chloro-2-(2,4-dichloro-phenoxy)-4-thiophen-2-yl-phenol], the MIC in data set [1] was found to be 50 µg/mL (≈ 135 µM); in data set [2], 60 µg/mL (≈ 161 µM); in data set [3] it was 10 µg/mL (≈ 26.9 µM); in data set [4], 50 µg/mL (≈ 135 µM).

In the case of `Oc1cc(Cl)c(-c2ccco2)cc1Oc1ccc(Cl)cc1Cl` [Example 4, 5-Chloro-2-(2,4-dichloro-phenoxy)-4-furan-2-yl-phenol], the MIC in data set [2] and in data set [3] was 500 µg/mL (≈ 1410 µM) throughout.

For `Oc1cc(Cl)c(NC(=S)Nc2cc(C(F)(F)F)cc(C(F)(F)F)c2)cc1Oc1ccc(Cl)cc1Cl` [Example 16, 1-(3,5-Bis-trifluoromethyl-phenyl)-3-[2-chloro-5-(2,4-dichloro-phenoxy)-4-hydroxy-phenyl]-thiourea], the MIC in data set [1] is 100 µg/mL (≈ 174 µM); in data set [2], 500 µg/mL (≈ 868 µM); in data set [4], 200 µg/mL (≈ 347 µM).

For `Cc1cc(O)c(Oc2ccccc2C#N)cc1-c1cccs1` [Example 26, 2-(2-Hydroxy-4-methyl-5-thiophen-2-yl-phenoxy)-benzonitrile], the MIC in data set [1] was 12500 µg/mL (≈ 40700 µM); in data set [2], 4000 µg/mL (≈ 13000 µM); in data set [3], 500 µg/mL (≈ 1630 µM); in data set [4] it was 12500 µg/mL (≈ 40700 µM).

Consider `Cc1cc(O)c(Oc2ccccc2C#N)cc1-c1ccsc1` [Example 27, 2-(2-Hydroxy-4-methyl-5-thiophen-3-yl-phenoxy)-benzonitrile], for which the MIC in data set [1] was 800 µg/mL (≈ 2600 µM); in data set [2] it was 6200 µg/mL (≈ 20200 µM); in data set [3], > 25000 µg/mL; in data set [4] it was 1600 µg/mL (≈ 5210 µM).

On to `O=[N+]([O-])c1ccc(NC(=S)Nc2cc(Oc3ccc(Cl)cc3Cl)c(O)cc2Cl)cc1` [Example 13, 1-[2-Chloro-5-(2,4-dichloro-phenoxy)-4-hydroxy-phenyl]-3-(4-nitro-phenyl)-thiourea], for which the MIC in data set [2] was 1000 µg/mL (≈ 2060 µM); in data set [3], 15600 µg/mL (≈ 32200 µM).

For the compound `N#Cc1ccccc1Oc1cc(-n2cccc2)ccc1O` [Example 18, 2-(2-Hydroxy-5-pyrrol-1-yl-phenoxy)-benzonitrile], the MIC is > 25000 µg/mL in data set [1], 4000 µg/mL (≈ 14500 µM) in data set [2], 4000 µg/mL (≈ 14500 µM) in data set [3] and > 25000 µg/mL in data set [4].

On to `Cc1cc(O)c(Oc2ccccc2C#N)cc1N1CCOCC1` [Example 31, 2-(2-Hydroxy-4-methyl-5-morpholin-4-yl-phenoxy)-benzonitrile], for which the MIC in data set [1] amounted to 3100 µg/mL (≈ 9990 µM); in data set [2], 7900 µg/mL (≈ 25500 µM); in data set [3] it was 4000 µg/mL (≈ 12900 µM); in data set [4] it was 6200 µg/mL (≈ 20000 µM).

Turning to `Oc1cc(Cl)c(NC(=S)NC2CCCCC2)cc1Oc1ccc(Cl)cc1Cl` [Example 12, 1-[2-Chloro-5-(2,4-dichloro-phenoxy)-4-hydroxy-phenyl]-3-cyclohexyl-thiourea], the MIC in data set [2] is 2000 µg/mL (≈ 4490 µM); in data set [3], 31300 µg/mL (≈ 70200 µM).

As to `Cc1nnsc1C(=O)Nc1cc(Oc2ccc(Cl)cc2Cl)c(O)cc1Cl` [Example 21, 4-Methyl-[1,2,3]thiadiazole-5-carboxylic acid [2-chloro-5-(2,4-dichloro-phenoxy)-4-hydroxy-phenyl]-amide], the MIC in data set [2] and in data set [3] was 4000 µg/mL (≈ 9290 µM) throughout.

Compound `N#Cc1cc(Cl)ccc1Oc1cc(N2CCOCC2)c(F)cc1O` registered a melting point of 149 to 151 °C.

With `OB(O)c1cc(Oc2ccc(Cl)cc2Cl)c(O)cc1Cl` [Example 6, 2-Chloro-5-(2,4-dichloro-phenoxy)-4-hydroxy-phenylboronic acid], the melting point was in the range of 180 to 183 °C. In addition, in data set [2], the MIC was determined as 500 µg/mL (≈ 1500 µM).

Turning to `Oc1cc(Cl)c(-n2cccc2)cc1Oc1ccc(Cl)cc1Cl` [Example 17, 5-Chloro-2-(2,4-dichloro-phenoxy)-4-pyrrol-1-yl-phenol], the melting point was in the range of 86 to 87 °C. Besides, the MIC in data set [1] turned out to be 50 µg/mL (≈ 141 µM). Further, the MIC in data set [2] came out at 250 µg/mL (≈ 705 µM). Besides, in data set [4], the MIC came out at 100 µg/mL (≈ 282 µM).

Turning to `Cc1cc(O)c(Oc2ccccc2C#N)cc1-c1ccco1` [Example 28, 2-(5-Furan-2-yl-2-hydroxy-4-methyl-phenoxy)-benzonitrile], the MIC in data set [1] amounted to 1600 µg/mL (≈ 5490 µM); in data set [2], 2000 µg/mL (≈ 6870 µM); in data set [3], 500 µg/mL (≈ 1720 µM); in data set [4], 800 µg/mL (≈ 2750 µM).

Compound `N/C(=N/O)c1cc(Oc2ccc(Cl)cc2Cl)c(O)cc1Cl` [Example 34, 2-Chloro-5-(2,4-dichloro-phenoxy)-4,N-dihydroxy-benzamidine] had a melting point of 137 °C. In addition, the MIC in data set [1] came out at 100 µg/mL (≈ 288 µM). In addition, in data set [2], the MIC was found to be 100 µg/mL (≈ 288 µM). The MIC in data set [4] was found to be 200 µg/mL (≈ 575 µM).

Regarding `O=C(Nc1cc(C(F)(F)F)cc(C(F)(F)F)c1)Nc1cc(Oc2ccc(Cl)cc2Cl)c(O)cc1Cl` [Example 15, 1-(3,5-Bis-trifluoromethyl-phenyl)-3-[2-chloro-5-(2,4-dichloro-phenoxy)-4-hydroxy-phenyl]-urea], the MIC worked out at 100 µg/mL (≈ 179 µM) in data set [1], 4000 µg/mL (≈ 7150 µM) in data set [2] and 800 µg/mL (≈ 1430 µM) in data set [4].

`CCOC(=O)c1nc(-c2cc(Oc3ccc(Cl)cc3Cl)c(O)cc2Cl)no1` [Example 35, 3-[2-Chloro-5-(2,4-dichloro-phenoxy)-4-hydroxy-phenyl][1,2,4]oxadiazole-5-carboxylic acid ethyl ester]: the melting point was 130 °C. Further, in data set [1], the MIC was found to be 100 µg/mL (≈ 233 µM). In addition, the MIC in data set [2] came out at 200 µg/mL (≈ 466 µM). Also, the MIC in data set [4] came out at 100 µg/mL (≈ 233 µM).

In the case of `Oc1cc(Cl)c(-c2nnn[nH]2)cc1Oc1ccc(Cl)cc1Cl` [Example 33, 5-Chloro-2-(2,4-dichloro-phenoxy)-4-(1H-tetrazol-5-yl)-phenol], the melting point was 174 to 180 °C. In addition, the MIC in data set [1] stood at 6200 µg/mL (≈ 17300 µM). Besides, the MIC in data set [2] amounted to 200 µg/mL (≈ 559 µM). Besides, in data set [4], the MIC was found to be 12500 µg/mL (≈ 35000 µM).

Usually melting point stands for the temperature, or range, at which the solid turns liquid.
